Molecular target: T1, Casp6 (Homo sapiens, UniProt P55212, INS179NQTEKLDTNITEVD)
T1 construct: generating mainly large subunit with a linker (LS-L), small subunit (SS), and a minor amount of large subunit (LS); His (C); made in house; host or cells: E. coli BL21(DE3)pLysS
T1 sequence (P55212 24-193 limits assumed): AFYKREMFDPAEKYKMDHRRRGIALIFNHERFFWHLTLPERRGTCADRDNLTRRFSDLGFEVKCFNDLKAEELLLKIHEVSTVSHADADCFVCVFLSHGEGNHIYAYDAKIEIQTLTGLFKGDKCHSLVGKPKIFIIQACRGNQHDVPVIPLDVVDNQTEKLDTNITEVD
T1 sequence (P55212 194-293 limits assumed): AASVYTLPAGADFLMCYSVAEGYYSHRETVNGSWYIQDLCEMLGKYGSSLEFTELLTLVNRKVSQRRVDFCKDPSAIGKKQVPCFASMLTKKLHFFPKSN
Assay: Reversibility of Casp6 inhibition (pre-incubation at 10-fold IC50, rapid 100-fold dilution)
Format: biochemical
Settings: recovery of activity after 60 min pre-incubation and 100-fold dilution
Procedure: Supplementary Figure S5. Mechanism of Casp6 inhibition with C13 and S10G. (a) Inhibition of Casp6 with C13 (left panel) and S10G (right panel) is reversible. The recovery of Casp6 activity after 60 min pre-incubation with C13 and S10G at a concentration of inhibitor equal to 10-fold the IC50 value followed by a rapid 100-fold […]
(1 picture or pasted object on this page, not shown here) […]
dilution into Casp6 activity assay solution. The control samples DMSO and Q-VD-OPh were pre-incubated and diluted in the absence of inhibitor, and in the presence of an irreversible inhibitor Q-VD-OPh, respectively. Data points represent mean ± standard error of the mean (SEM) from three independent experiments. (b) Coomassie stain of SDS-PAGE of purified recombinant WT -, L200A-, and K284A-Casp6 (left panel) expressed from a full -length Casp6 encoding construct (Fig. 1c ), and copurified LS and SS of WT -, L200A-, and K284A-LS-SS-Casp6 (right panel). FL (full-length Casp6), ΔCasp6 (Casp6 without a prodomain), LS-L (large subunit with linker), LS (large subunit), and SS (small subunit) depict different bands of Casp6. (c) Michaelis-Menten kinetic plots (top panel) and calculated KM and Vmax values (bottom panel) for Casp6-WT-LS-SS (left panel), Casp6-L200A-LS-SS (middle panel), and Casp6-K284A-LS-SS (right panel) enzymatic activity in presence of 1% DMSO (0 µM C13) or increasing doses of C13. […]

reversibility of Casp6 inhibition: reversible
SMILES: COC(=O)c1cc(CNC(=O)C2Cc3ccccc3O2)cc(NC(=O)c2ccco2)c1 (stereo not shown) [Compound C13]
